In the supplement of paper PMC4862054:

What was measured:
Test in all cases: normalised response (% of control), CellTiter-Glo; higher = more viable cells (100 = DMSO, 0 = benzethonium chloride kill control)
Conditions in all cases: incubation time: 72 h
[1] = system: CAL-85-1
How it was run: (§1)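 A 20 µl suspension of breast cancer cells was seeded into each well of 384-well plates containing compound at 5 concentrations in 10-fold steps over a compound-specific 10,000-fold range. After 72 h incubation, CellTox Green fluorescence (485/520 nm) was read first, and CellTiter-Glo luminescence was read after 10 min at room temperature. Each plate was normalised against 0.1 % DMSO (100) and a positive kill control (0), and each value is the normalised signal at one concentration.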

[2] = system: CAL-51
How it was run: as §1

[3] = system: MDA-MB-436
How it was run: as §1

[4] = system: MDA-MB-468
How it was run: as §1

[5] = system: CAL-148
How it was run: as §1

[6] = system: MCF-10A
How it was run: as §1

[7] = system: CAL-120
How it was run: as §1

[8] = system: BT-549
How it was run: as §1

[9] = system: MDA-MB-231
How it was run: as §1

[10] = system: MDA-MB-453
How it was run: as §1

[11] = system: MFM-223
How it was run: as §1

[12] = system: HDQ-P1
How it was run: as §1

[13] = system: HCC1143
How it was run: as §1

[14] = system: BT-474
How it was run: as §1

[15] = system: Hs578T
How it was run: as §1

[16] = system: DU-4475
How it was run: as §1

[17] = system: HCC1937
How it was run: as §1

[18] = system: SK-BR-3
How it was run: as §1

[19] = system: HCC1599
How it was run: as §1

SMILES	normalised response [1] [%]	normalised response [2] [%]	normalised response [3] [%]	normalised response [4] [%]	normalised response [5] [%]	normalised response [6] [%]	normalised response [7] [%]	normalised response [8] [%]	normalised response [9] [%]	normalised response [10] [%]	normalised response [11] [%]	normalised response [12] [%]	normalised response [13] [%]	normalised response [14] [%]	normalised response [15] [%]	normalised response [16] [%]	normalised response [17] [%]	normalised response [18] [%]	normalised response [19] [%]
CO[C@H]1C[C@@H]2CC[C@@H](C)[C@@](O)(O2)C(=O)C(=O)N2CCCC[C@H]2C(=O)O[C@H]([C@H](C)C[C@@H]2CC[C@@H](OCCO)[C@H](OC)C2)CC(=O)[C@H](C)/C=C(\C)[C@@H](O)[C@@H](OC)C(=O)[C@H](C)C[C@H](C)/C=C/C=C/C=C/1C [Everolimus] (0.1 nM)	90	115	90.7	84.8	80.7	96	95.9	88	99.2	95.8	88.4	94.4	92	92	89.5	95	88	92	90.5
CCCCCCCCc1ccc(CCC(N)(CO)CO)cc1 [Fingolimod] (1 nM)	103	97.7	92.8	107	97.3	103	96.4	106	98	109	103	98.6	96.8	97.7	100	101	95.9	102	106
CCCCCCCCc1ccc(CCC(N)(CO)CO)cc1 [Fingolimod] (10 nM)	111	125	94.5	94.2	94.5	105	95.5	98.1	99.2	105	101	104	99.5	99.7	103	103	100	105	120
Cc1ccc(NC(=O)c2ccc(CN3CCN(C)CC3)cc2)cc1Nc1nccc(-c2cccnc2)n1 [Imatinib] (1 nM)	102	74.7	89.9	102	114	101	101	102	105	119	108	102	100	99.2	103	107	94.5	107	101
Cc1ccc(NC(=O)c2ccc(CN3CCN(C)CC3)cc2)cc1Nc1nccc(-c2cccnc2)n1 [Imatinib] (10 nM)	96	107	103	113	113	104	102	96.7	99.9	108	109	106	101	104	107	109	99.3	109	103
c1ccc([C@H]2CN3CCSC3=N2)cc1 [Levamisole] (1 nM)	99.9	69.9	97.4	112	113	107	98.1	106	107	112	106	104	103	106	105	105	99.4	109	106
c1ccc([C@H]2CN3CCSC3=N2)cc1 [Levamisole] (10 nM)	95.6	78.9	106	102	114	110	100	99	99.3	117	110	97	99.5	106	105	103	103	95.1	99.5
Nc1nc(OCc2cc(Br)cs2)c2[nH]cnc2n1 [Lomeguatrib] (1 nM)	99.9	118	110	96.2	92.5	108	101	103	101	97.6	102	104	97.6	100	99	99.2	103	102	90.9
Nc1nc(OCc2cc(Br)cs2)c2[nH]cnc2n1 [Lomeguatrib] (10 nM)	94.2	69.8	103	101	105	109	101	93.5	98.5	97.3	97.4	104	101	104	105	104	98.9	105	91.8
COc1ccccc1S(=O)(=O)Nc1ccc2c(c1)CN(C)C(=O)N2 [PFI-1] (1 nM)	98	77.9	94.8	90.8	107	112	100	96.5	103	105	101	96	94.2	93.7	107	104	99.2	104	80.6
COc1ccccc1S(=O)(=O)Nc1ccc2c(c1)CN(C)C(=O)N2 [PFI-1] (10 nM)	94.6	102	97.1	95.3	108	103	91.8	90.1	103	97.2	109	96	102	99.7	106	109	94.5	88.4	88.6
C/C(=C\c1csc(C)n1)[C@@H]1C[C@@H]2O[C@]2(C)CCC[C@H](C)[C@H](O)[C@@H](C)C(=O)C(C)(C)[C@@H](O)CC(=O)O1 [Patupilone] (0.1 nM)	104	81.4	98	107	113	102	104	98.7	101	101	103	105	97.6	110	99.3	106	98	98	108
NS(=O)(=O)OC[C@@H]1C[C@@H](n2ccc3c(N[C@H]4CCc5ccccc54)ncnc32)C[C@@H]1O [Pevonedistat] (1 nM)	93.9	79.2	99.7	96.7	106	115	100	99.2	102	110	102	100	105	93.6	99.7	94.7	100	107	95.9
NS(=O)(=O)OC[C@@H]1C[C@@H](n2ccc3c(N[C@H]4CCc5ccccc54)ncnc32)C[C@@H]1O [Pevonedistat] (10 nM)	100	77	96.6	97.2	109	112	97.8	94	107	100	102	95.9	102	114	103	109	99.1	93.5	97.1
CNNCc1ccc(C(=O)NC(C)C)cc1 [Procarbazine] (1 nM)	103	88.6	101	104	104	111	101	111	104	108	105	104	112	102	108	103	111	112	109
CNNCc1ccc(C(=O)NC(C)C)cc1 [Procarbazine] (10 nM)	99	66.9	97.2	113	108	103	102	100	106	95.8	104	109	105	97.9	101	107	107	109	91.3
CN(C)C[C@@H]1CCn2cc(c3ccccc32)C2=C(C(=O)NC2=O)c2cn(c3ccccc23)CCO1 [Ruboxistaurin] (1 nM)	96.7	129	105	106	97.7	106	90.3	96.9	97.9	98.9	98.6	101	94.4	95.3	96.7	99.8	94.6	98.4	99.2
CN(C)C[C@@H]1CCn2cc(c3ccccc32)C2=C(C(=O)NC2=O)c2cn(c3ccccc23)CCO1 [Ruboxistaurin] (10 nM)	95.6	91.4	101	103	96.1	98.3	94.3	95.5	94	100	94.6	101	99.9	99.1	98.1	95.3	99.5	116	104
CN1CCN(CCOc2cc(OC3CCOCC3)c3c(Nc4c(Cl)ccc5c4OCO5)ncnc3c2)CC1 [Saracatinib] (1 nM)	105	116	103	99.2	97.9	96.5	94.4	105	94.6	103	97.5	94.5	89.2	94.4	97.4	102	95.7	98.6	116
CN1CCN(CCOc2cc(OC3CCOCC3)c3c(Nc4c(Cl)ccc5c4OCO5)ncnc3c2)CC1 [Saracatinib] (10 nM)	104	129	94.8	93.2	91.6	97.8	93.1	103	92.7	107	96	118	94.4	93.5	101	103	97.6	113	103
